Values joined by “and” are separate entries in the source; they are usually repeats but may differ in a detail not shown here. Equal entries are not always repeated.
Experiments:
Type in all cases: biochemical
Conditions in all cases: 10 µM compound; mean ± SD
AKR1C1 = target: T1, AKR1C1 (Homo sapiens, UniProt Q04828); test: AKR1C1 inhibition assay (progesterone to 20α-hydroxyprogesterone)
T1 construct: Myc (N); expressed in transfected cells; host or cells: HEK293
T1 sequence (Q04828 1-323): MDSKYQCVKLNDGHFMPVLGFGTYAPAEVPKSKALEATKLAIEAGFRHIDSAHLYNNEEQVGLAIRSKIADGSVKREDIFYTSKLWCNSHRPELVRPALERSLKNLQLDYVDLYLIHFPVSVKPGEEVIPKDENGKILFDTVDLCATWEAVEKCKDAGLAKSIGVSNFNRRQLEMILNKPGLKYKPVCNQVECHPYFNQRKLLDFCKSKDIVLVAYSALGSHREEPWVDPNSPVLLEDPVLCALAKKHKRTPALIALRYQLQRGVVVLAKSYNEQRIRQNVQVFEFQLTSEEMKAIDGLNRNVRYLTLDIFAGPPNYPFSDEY
Description: (§1) For enzymatic assays and inhibitor testing, all enzymes were cloned into bacterial or mammalian expression vectors. AKR1C3 and the human hydroxysteroid dehydrogenases HSD17B1, HSD17B2, HSD17B4 (SDR domain), HSD17B7, and HSD17B10 were cloned into a pGEX vector as described in [71, 72]. The coding sequences for AKR1C1, AKR1C2, and AKR1C4 were cloned by Gateway technology into the pcDNA3-N-MycDest vector according to the manufacturer’s instructions (Life Technologies, Carlsbad, CA, USA). The p11 plasmid coding for HSD17B14 (S205 variant) was a gift from Udo Opperman SGC Oxford, UK. For assays with HSD17B3, HEK293 cells stably expressing HSD17B3 were used. Enzymes were expressed in E. coli BL21 DE3 or E. coli BL21 DE3 Codon Plus RP (Stratagene, San Diego, CA, USA) or in HEK293 cells as described in [71, 72, 73]. Bacterial and cell pellets were stored at −20 °C and −80 °C, respectively, until use.
(§2) Inhibition assays were carried out as described in [71, 74]. […] For a detailed assay setup, see Supplementary Table S6. The incubation at 37 °C was stopped with 0.21 M ascorbic acid in methanol:acetic acid 99:1 (v:v) after the time needed to convert approximately 30% of the substrate in a control assay with 1% DMSO, without inhibitor candidate. Substrates and products were extracted from the reaction mixture by solid-phase extraction using C18 cartridges (Phenomenex, Aschaffenburg, Germany) and separated by RP–HPLC in a Beckman–Coulter HPLC Gold system, using the Luna 5 µm C18(2), 125 × 4.0 mm column (Phenomenex). The mobile phases used were H2O:ACN (57:43 (v:v); for assays of estrone (E1) to oestradiol (E2), E2 to E1, and ∆4-androstene-3,17-dione to testosterone conversion), H2O:ACN (49:51 (v:v); for assays of progesterone to 20α-hydroxyprogesterone conversion), and H2O:MeOH (35:65 (v:v) for assays of dihydrotestosterone (DHT) to 3α-androstanediol conversion) at a flow rate of 1 mL/min. Radioactivity was detected by online scintillation counting by using a radioactivity monitor (LB506D, Berthold Technologies, Bad Wildbad, Germany). Conversion of substrates to products was determined by integration of the peak area of the substrate and product peaks in percent. For calculation of inhibition, the conversion of control assay (assay without inhibitor) was set to 0% inhibition. All assays were run in triplicates, and mean values ± SD are reported.
(§3) Table S6: Activity assay setup […]
(§4) E1: estrone; E2: 17β-estradiol, A: Δ4-androstene-3,17-dione; T: testosterone, P: progesterone, 20αOHP: 20α-hydroxyprogesterone, DHT: dihydrotestosterone, 3α-Adiol: 3α-androstanediol, NaPi: 100 mM Na-phosphate buffer; PI: C0mplete protease inhibitor (Roche);. E.coli - Expression in E.coli BL21 DE3 Codon Plus RP except E.coli BL21 DE3 […]
(§5) application to antiparasitic and natural product synthesis. Eur J Org Chem […]
(§6) Synthesis of Xanthohumol analogues and discovery of potent thioredoxin reductase inhibitor as potential anticancer agent. J Med Chem 2015, 58,

AKR1C4 = target: T2, AKR1C4 (Homo sapiens, UniProt P17516); test: AKR1C4 inhibition assay (DHT to 3α-androstanediol)
T2 construct: Myc (N); expressed in transfected cells; host or cells: HEK293
T2 sequence (P17516 1-323): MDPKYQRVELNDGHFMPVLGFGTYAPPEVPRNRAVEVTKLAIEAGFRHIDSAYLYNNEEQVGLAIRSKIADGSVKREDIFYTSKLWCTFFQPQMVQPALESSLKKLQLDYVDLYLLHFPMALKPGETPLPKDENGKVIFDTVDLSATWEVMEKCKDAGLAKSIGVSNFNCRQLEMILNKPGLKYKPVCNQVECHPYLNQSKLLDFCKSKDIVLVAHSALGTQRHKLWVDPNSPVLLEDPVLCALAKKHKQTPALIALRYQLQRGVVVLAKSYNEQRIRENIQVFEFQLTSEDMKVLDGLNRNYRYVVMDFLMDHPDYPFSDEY
Description: as §1, §2, §3, §4, §5, §6

HSD17B7 = target: T3, HSD17B7 (Homo sapiens, UniProt P56937); test: HSD17B7 inhibition assay (estrone to oestradiol)
T3 construct: GST (own knowledge: pGEX vectors encode N-terminal GST); made in house; host or cells: E. coli BL21 DE3 Codon Plus RP
T3 sequence (P56937 1-341): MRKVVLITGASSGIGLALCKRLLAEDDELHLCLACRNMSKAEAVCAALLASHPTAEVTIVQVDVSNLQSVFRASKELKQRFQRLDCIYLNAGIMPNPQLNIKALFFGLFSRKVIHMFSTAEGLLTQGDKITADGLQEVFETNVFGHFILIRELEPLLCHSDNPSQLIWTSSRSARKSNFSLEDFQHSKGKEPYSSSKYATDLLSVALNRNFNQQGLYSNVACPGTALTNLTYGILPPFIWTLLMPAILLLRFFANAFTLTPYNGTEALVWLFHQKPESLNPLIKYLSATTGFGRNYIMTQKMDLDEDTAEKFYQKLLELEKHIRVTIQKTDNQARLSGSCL
Description: as §1, §2, §3, §4, §5, §6

HSD17B14 = target: T4, HSD17B14 (Homo sapiens, UniProt Q9BPX1, T205S); test: HSD17B14 (S205 variant) inhibition assay (oestradiol to estrone)
T4 construct: His6 (own knowledge: the SGC p11 vector encodes an N-terminal His tag with TEV site); made in house; host or cells: E. coli BL21 DE3
T4 sequence (Q9BPX1 1-270 T205S): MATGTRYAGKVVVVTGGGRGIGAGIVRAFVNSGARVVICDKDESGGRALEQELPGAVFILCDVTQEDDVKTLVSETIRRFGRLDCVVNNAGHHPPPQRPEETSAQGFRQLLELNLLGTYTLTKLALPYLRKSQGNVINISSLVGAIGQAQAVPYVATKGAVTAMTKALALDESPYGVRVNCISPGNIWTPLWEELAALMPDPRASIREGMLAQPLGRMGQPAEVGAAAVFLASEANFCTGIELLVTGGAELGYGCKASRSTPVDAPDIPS
Description: as §1, §2, §3, §4, §5, §6

In the case of `Cc1ccc(/C=C/C(=O)c2c(O)cc(O)cc2O)cc1` [Compound 21], the “Inhibition of AKR1C1 at 10 µM in %” value (AKR1C1) is reported as 90.2 ± 0.8% and > 75%, the “Inhibition of AKR1C4 at 10 µM in %” value (AKR1C4) is reported as 91.6 ± 1.5% and > 75% and the “Inhibition of HSD17B7 at 10 µM in %” value (HSD17B7) is reported as 6.8 ± 4.7%. The “Inhibition of HSD17B14 at 10 µM in %” value (HSD17B14) was -8.0 ± 2.3%.
`COc1ccc(/C=C/C(=O)c2c(O)cc(O)cc2OC)cc1` [Compound 18] was tested, and the “Inhibition of AKR1C1 at 10 µM in %” value (AKR1C1) was 96.5%, the “Inhibition of AKR1C4 at 10 µM in %” value (AKR1C4) was 25.0 ± 1.5% and the “Inhibition of HSD17B7 at 10 µM in %” value (HSD17B7) was 6.5 ± 6.7%. For the same molecule, the “Inhibition of HSD17B14 at 10 µM in %” value (HSD17B14) was 24.9 ± 8.1%.
`Cc1cccc(/C=C/C(=O)c2c(O)cc(O)cc2O)c1` [Compound 20] was tested, and the “Inhibition of AKR1C1 at 10 µM in %” value (AKR1C1) was 86.9 ± 1.1% and > 75%, the “Inhibition of AKR1C4 at 10 µM in %” value (AKR1C4) was 79.6 ± 0.2% and > 75% and the “Inhibition of HSD17B7 at 10 µM in %” value (HSD17B7) was 3.8 ± 3.5%. The “Inhibition of HSD17B14 at 10 µM in %” value (HSD17B14) was 18.5 ± 9.3%.
With `COc1ccc(/C=C/C(=O)c2c(O)cc(O)cc2O)cc1` [Compound 19] the “Inhibition of AKR1C1 at 10 µM in %” value (AKR1C1) was over 75%, the “Inhibition of AKR1C4 at 10 µM in %” value (AKR1C4) was 93.3 ± 0.7% and > 75% and the “Inhibition of HSD17B7 at 10 µM in %” value (HSD17B7) was 4.6 ± 4.4%. For the same molecule, the “Inhibition of HSD17B14 at 10 µM in %” value (HSD17B14) was 1.8 ± 7.7%.
`O=C(/C=C/c1ccc(Cl)cc1Cl)c1c(O)cc(O)cc1O` [Compound 23, 2,4-dichloro-2′,4′,6′-trihydroxychalcone] gave an inhibition at 10 µM (AKR1C1) of 97 ± 0.5%, an inhibition at 10 µM (AKR1C4) of 97 ± 0.9% and an inhibition at 10 µM (HSD17B7) of 9.9 ± 4.7%. It also gave an inhibition at 10 µM (HSD17B14) of 13.9 ± 2.7%.
`COc1cc(O)cc(O)c1C(=O)/C=C/c1ccc(Cl)cc1Cl` [Compound 25] was tested, and the “Inhibition of AKR1C1 at 10 µM in %” value (AKR1C1) was 87.9%, the “Inhibition of AKR1C4 at 10 µM in %” value (AKR1C4) was 41.6 ± 1.8% and the “Inhibition of HSD17B7 at 10 µM in %” value (HSD17B7) was 37.7 ± 11.4%. For the same molecule, the “Inhibition of HSD17B14 at 10 µM in %” value (HSD17B14) was -3.2 ± 6.3%.

— article PMC8876231, “Analogues of Natural Chalcones as Efficient Inhibitors of AKR1C3” (Metabolites, 2022)
